Experimental data as given in US12371454B2, “Cyclic peptide compound having Kras inhibitory action” (priority 2019, dated 2025).
Starred links: 1 amine or outer side, 2 acyl side, 3 side chain; linkers in the order of their positions; H or OH if unused. Positions of bridges follow the written chain, without caps; N, C: chain ends. Non-standard residues stand in square brackets, D forms with d. Residues, ends and D or L forms follow the SMILES beside them. *: point of attachment. hPhe(3-Cl-4-CF3) = N[C@@H](CCc1ccc(C(F)(F)F)c(Cl)c1)C(=O)O; hPhe(3-F,4-CF3) = N[C@@H](CCc1ccc(C(F)(F)F)c(F)c1)C(=O)O; X17 = Cc1cncc(C[C@@H](C(=O)[*:2])N(C)[*:1])c1; X71 = O=C([C@H](Cc1cc(Cl)cc(I)c1)N[*:1])[*:2]; NMeY = CN[C@@H](Cc1ccc(O)cc1)C(=O)O; NMeCha = CN[C@@H](CC1CCCCC1)C(=O)O; Gly(N-(CH2)2OEt) = CCOCCNCC(=O)O; NMeChg = CN[C@H](C(=O)O)C1CCCCC1; NMeI = CC[C@H](C)[C@H](NC)C(=O)O; NMeD = CN[C@@H](CC(=O)O)C(=O)O; NMeL = CN[C@@H](CC(C)C)C(=O)O; NMeV = CN[C@H](C(=O)O)C(C)C; d(β3hA) = C[C@@H](N)CC(=O)O; NMeAbu = CC[C@H](NC)C(=O)O; dPip = O=C(O)[C@H]1CCCCN1; NMeA = CN[C@@H](C)C(=O)O; NMeAib = CNC(C)(C)C(=O)O; Nle = CCCC[C@H](N)C(=O)O; Piperidide = C1CCN(*)CC1; Ac5c = NC1(C(=O)O)CCCC1; Aze = O=C(O)[C@@H]1CCN1; Ac4c = NC1(C(=O)O)CCC1; Ac3c = NC1(C(=O)O)CC1; Sar = CNCC(=O)O

molecular target: T1, Kras and SOS1 (biotin-tagged human Kras loaded with GDP, His-tagged human SOS1) (Homo sapiens, UniProt P01116, G12D); experiment: Protein-protein interaction inhibition between Kras and SOS1 (KrasGl2D-SOS PPI) using AlphaScreen; format: binding; conditions: AlphaScreen; biotin-tagged human Kras loaded with GDP, His-tagged human SOS1; read-out: KRAS G12D-SOS PPI IC50
T1 construct: made in house; host or cells: E. coli (stated for Kras only)
Method in brief: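 Donor beads (nickel) hold His-SOS1; acceptor beads (streptavidin) hold biotin-Kras bound to GDP. Signal measured at 520-620 nm following 680 nm excitation.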

T1 sequence (P01116 1-188 isoform P01116-2 G12D): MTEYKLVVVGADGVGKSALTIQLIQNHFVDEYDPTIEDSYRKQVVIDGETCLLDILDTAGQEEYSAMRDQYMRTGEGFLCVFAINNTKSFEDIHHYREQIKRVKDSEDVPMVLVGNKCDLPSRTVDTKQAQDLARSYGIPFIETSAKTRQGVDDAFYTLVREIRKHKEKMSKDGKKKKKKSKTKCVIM

In order of falling IC50:
1. CC[C@H](C)[C@@H]1NC(=O)[C@H](CC(C)C)N(C)C(=O)C[C@@H](C(=O)N2CCCCC2)N(C)C(=O)[C@H](C2CCCCC2)N(C)C(=O)C2(CCCC2)NC(=O)[C@H](Cc2cncc(C)c2)N(C)C(=O)[C@H](CCc2ccc(C(F)(F)F)c(Cl)c2)NC(=O)CN(C)C(=O)[C@H](CC2CCCCC2)N(C)C(=O)[C@@H]2CCN2C(=O)[C@H](C)N(C)C1=O [Compound 338] ([NMeL]I[NMeA][Aze][NMeCha][Sar][hPhe(3-Cl-4-CF3)][X17][Ac5c][NMeChg][NMeD]-Piperidide; lactam N-11)  220 nM
2. CCCC[C@@H]1NC(=O)[C@H](Cc2cc(Cl)cc(I)c2)NC(=O)CN(C)C(=O)[C@H](Cc2ccc(OC)cc2)N(C)C(=O)[C@@H]2CCN2C(=O)[C@H](C)N(C)C(=O)[C@H]([C@@H](C)CC)NC(=O)[C@H](CC)N(C)C(=O)C[C@@H](C(=O)N2CCCCC2)N(C)C(=O)[C@H](CC(C)C)NC(=O)C(C)(C)N(C)C1=O [Compound 1156] ([NMeAbu]I[NMeA][Aze][NMeY](Me)[Sar][X71][Nle][NMeAib]L[NMeD]-Piperidide; lactam N-11)  140 nM
3. CCOCCN1CC(=O)N(C)[C@@H](CC2CCCCC2)C(=O)N(C)CC(=O)N[C@@H](CCc2ccc(C(F)(F)F)c(Cl)c2)C(=O)N2CCC[C@H]2C(=O)NC2(CCCC2)C(=O)N(C)[C@@H](C(C)C)C(=O)N[C@H](C)CC(=O)N(C)[C@@H](CC(C)C)C(=O)N[C@@H]([C@@H](C)CC)C(=O)N(C)CC1=O [Compound 864] (cyclo([Ac5c][NMeV][d(β3hA)][NMeL]I[Sar][Gly(N-(CH2)2OEt)][NMeCha][Sar][hPhe(3-Cl-4-CF3)]P))  73 nM
4. CC[C@H](C)[C@@H]1NC(=O)[C@H](C)N(C)C(=O)C[C@@H](C)NC(=O)[C@H](C(C)C)N(C)C(=O)C2(CCCC2)NC(=O)[C@@H]2CCCN2C(=O)[C@H](CCc2ccc(C(F)(F)F)c(Cl)c2)NC(=O)[C@H]2CCCCN2C(=O)[C@H](CC2CCCCC2)N(C)C(=O)[C@@H]2CCCN2C(=O)CN(C)C1=O [Compound 834] (cyclo([Ac5c][NMeV][d(β3hA)][NMeA]I[Sar]P[NMeCha][dPip][hPhe(3-Cl-4-CF3)]P))  57 nM
5. CC[C@H](C)[C@@H]1NC(=O)[C@H](CC(C)C)N(C)C(=O)C[C@@H](C)NC(=O)[C@H](CC(C)C)N(C)C(=O)C2(CCC2)NC(=O)[C@@H]2CCCN2C(=O)[C@H](CCc2ccc(C(F)(F)F)c(F)c2)NC(=O)CN(C)C(=O)[C@H](CC2CCCCC2)N(C)C(=O)CN(C)C(=O)CN(C)C1=O [Compound 133] (cyclo([Ac4c][NMeL][d(β3hA)][NMeL]I[Sar][Sar][NMeCha][Sar][hPhe(3-F,4-CF3)]P))  23 nM
6. CC[C@H](C)[C@@H]1NC(=O)[C@H](C)N(C)C(=O)C[C@@H](C(=O)N2CCCCC2)N(C)C(=O)[C@H](C(C)C)N(C)C(=O)C2(CCCC2)NC(=O)[C@@H]2CCCN2C(=O)[C@H](CCc2ccc(C(F)(F)F)c(Cl)c2)NC(=O)[C@H]2CCCN2C(=O)[C@H](CC2CCCCC2)N(C)C(=O)[C@@H]2CCN2C(=O)CN(C)C1=O [Compound 447] ([NMeA]I[Sar][Aze][NMeCha][dP][hPhe(3-Cl-4-CF3)]P[Ac5c][NMeV][NMeD]-Piperidide; lactam N-11)  14 nM
7. CC[C@H](C)[C@@H]1NC(=O)[C@H](CC(C)C)N(C)C(=O)C[C@@H](C(=O)N2CCCCC2)N(C)C(=O)[C@H](C(C)C)N(C)C(=O)C2(CC2)NC(=O)[C@@H]2CCCN2C(=O)[C@H](CCc2ccc(C(F)(F)F)c(Cl)c2)NC(=O)CN(C)C(=O)[C@H](CC2CCCCC2)N(C)C(=O)CN(C)C(=O)CN(C)C1=O [Compound 468] ([NMeL]I[Sar][Sar][NMeCha][Sar][hPhe(3-Cl-4-CF3)]P[Ac3c][NMeV][NMeD]-Piperidide; lactam N-11)  2.5 nM
8. CC[C@H](C)[C@@H]1NC(=O)[C@H](CC(C)C)N(C)C(=O)C[C@@H](C(=O)N(C)C)N(C)C(=O)[C@H]([C@@H](C)CC)N(C)C(=O)C2(CCCC2)NC(=O)[C@@H]2CCCN2C(=O)[C@H](CCc2ccc(C(F)(F)F)c(Cl)c2)NC(=O)CN(C)C(=O)[C@H](CC2CCCCC2)N(C)C(=O)[C@@H]2CCN2C(=O)[C@H](C)N(C)C1=O [Compound 1858] ([NMeL]I[NMeA][Aze][NMeCha][Sar][hPhe(3-Cl-4-CF3)]P[Ac5c][NMeI][NMeD]-NMe2; lactam N-11)  1.1 nM
